Like-named read-outs stand apart in the source and are kept apart here.
Experiments:
[1] = biological target: human GPIIb/IIIa receptor (Homo sapiens (Human), UniProt P05106+P08514); assay: Affinity assay: displacement of tritiated reference compound from immobilized purified GPIIb/IIIa; type: binding
Description: Affinity assay: In the first step human GPIIb/IIIa purified from human platelets was immobilized on a 96-well solid plate. After 48 hours the plates were washed and the unspecific binding sites were blocked with Roti®-Block. 2. In the next step, the plates were simultaneously incubated with a tritium labeled known GPIIb/IIIa binder (^3H) mixed with increasing concentrations of the novel small molecule compounds (inhibitor, ^19F). The higher the affinity of the inhibitor, the lower the bound fraction of the tritiated known GPIIb/IIIa binder (^3H) was. The fraction of tritiated compound (^3H), which is not displaced by inhibitor, was measured in a microplate scintillation counter.
Purified human glycoprotein IIb/IIIa (20 mM Tris-HCl, 0.1 M NaCl, 0.1% Triton X-100, 1 mM CaCl2, 0.05% NaN3, 50% Glycerol, pH 7.4) was purchased from Enzyme Research Laboratories Inc. (South Bend, Ind.). The GPIIb/IIIa receptor was diluted in phosphate-buffered saline (Dulbecco's Phosphate Buffered Saline (D-PBS(+)) with calcium and magnesium, GIBCO®, Invitrogen) with 0.01% bovine serum albumin (albumin from bovine serum—lyophilized powder, ≧96%, Sigma).
The GPIIb/IIIa receptor was immobilized 48 hours at least (100 μL per well, 48 to maximum 96 hours) on a 96-well solid plate (Immuno Plate MaxiSorp™, Nunc, Roskilde, Denmark) at 277 K to 280 K and at a concentration of 0.1 μg per well to 1 μg per well. As negative control one row of the plate (n=8) was incubated just with 2% bovine serum albumin (200 μper well, albumin from bovine serum—lyophilized powder, […], Sigma, diluted in D-PBS(+)). After washing three times with the wash buffer (230 μL per well, Dulbecco's Phosphate Buffered Saline (D-PBS (−)) contains no calcium or magnesium, GIBCO®, Invitrogen) residual exposed plastic and unspecific binding sites were blocked by incubating the plate with a special blocking solution (200 μL per well, Roti®-Block, Carl Roth GmbH Co KG, Karlsruhe) containing 2% bovine serum albumin (Albumin from bovine serum—lyophilized powder, ≧96%, Sigma) 1 hour at room temperature.
After washing three times with the wash buffer 50 μL of tritiated reference compound (60 nM, ^3H-labeled compound) and 50 μL of novel compound (inhibitor, ^19F) were simultaneously added to each well and incubated for 1 hour at room temperature. Several concentrations of each novel inhibitor (0.1, 1, 2, 5, 10, 20 50, 100, 200, 500, 1000, 2000, 5000, 10000 and 20000 nM) were investigated. At each concentration of inhibitor a fourfold determination was performed.
The maximum value of tritiated reference compound was determined without addition of inhibitor (n=8). To exclude unspecific binding of ^3H-reference compound wells without glycoprotein receptors were used as negative controls (n=12, identically treated just without GP IIb/IIIa receptors).
After one hour the plate was washed three times with phosphate-buffered saline (200 μL per well, Dulbecco's Phosphate Buffered Saline (D-PBS(+)), GIBCO®, Invitrogen). Following 140 μL of liquid scintillation cocktail (MicroScint™ 40 aqueous, Perkin Elmer) was added to each well. After 15 min at room temperature the plates were measured at the microplate scintillation counter (TopCount NXT v2.13, Perkin Elmer, Packard Instrument Company).
In the first step human glycoprotein IIb/IIIa, which is purified from human platelets, was immobilized on a 96-well solid plate. After 48 hours at least the plates were washed and the unspecific binding sites were blocked with Roti®-Block. In the next step, the plates were simultaneously incubated with a tritium labeled reference compound and the novel small molecule compound (inhibitor). The higher the affinity of the inhibitor, the smaller is the bound fraction of reference compound. The fraction of tritiated reference compound, which is not displaced by inhibitor, was measured at a microplate scintillation counter.

[2] = Plasma protein binding by equilibrium dialysis, human plasma; type: in vitro ADME; conditions: plasma (10% in buffer), Caucasian, read-out: Fu (Mari)
Description: (§1) The determination of the plasma protein binding of compounds was performed by means of an equilibrium dialysis in a 96-well HT plate. Solutions of test compound (0.3 μM and 3 μM) were prepared in buffer (50 mM phosphate buffer) and 10% plasma. A 96 well HT dialysis plate (Teflon) was assembled so that each well was divided in two compartments by a semi-permeable cellulose membrane (regenerated Cellulose, MWCO 12-14K). The phosphate buffer solution (150 μL) was added to one side of the membrane and the plasma solution to the other side (150 μL). The compounds were added to the plasma solution side and were incubated at 37 degree. The unbound fraction of the compound could pass through the membrane and equilibrium between the two sides could be reached (6-8 h, 37° C.). Both solutions were analyzed for each compound (plasma-free and plasma-containing) by LC-MS. Both solutions for each compound were diluted with buffer or plasma to reach the same matrix (10% plasma) for analysis and were precipitated by the addition of methanol. The fraction unbound (Fu) was calculated as the quotient of the equilibrium concentrations of the compound in plasma-free and plasma-containing solution.

[3] = Plasma protein binding by equilibrium dialysis, monkey plasma; type: in vitro ADME; conditions: plasma (10% in buffer), Cynomolgus, read-out: Fu (Mari)
Description: as §1

human thrombi = assay: Ex vivo blood flow model: binding to human thrombi, incl. competition with cold compound; conditions: ± SEM
Text: The binding of compounds to thrombi was further investigated in an ex vivo blood flow model similar to that described in “Wakhloo, A. K. et al. Thrombus and stroke 2008, in vitro models 57-66” but modified with regard to thrombus development. Briefly, an open handmade tube-set consisting of tygon-tubes (Tygon R-1000, part N^O AAU00007: I.D. 3.2 mm, O.D. 6.4 mm, Saint Gobain Performance Plastics North America), intermediate tubes (Intrafix® Infusion set, B. Braun, Melsungen, Germany) an open reservoir (10 mL Combitip, Eppendorf) and a chamber made of a piece of polyethylene-Tube, ([…] Polyethylene Tubing, Clay Adams, PE160, length: 6.5 cm) containing a loop of a roughened thread (fishing line: Okuma UltraMax whitefish, diameter: 0.14 mm, length: 5 cm; sandpaper: CAMI Grit designation: 600, CP918a, VSM) was used for thrombus formation. The connection between the intermediate tube and the thrombus chamber was made by trimmed tips (epTIPS, 200 μL, Eppendorff, Hamburg/Germany). The Reservoir and the thrombus chamber were fixed by clamps and stands. A peristaltic-pump (Minipuls 3, Gilson, Middelton/USA) was used to pump the blood around thereby adjusting the flow in the middle of the thrombus chamber to 70-90 cm per second, which was monitored by ultrasound Doppler measurement (Vevo 770 High-Resolution In Vivo Micro-Imaging System, VisualSonics, TorontoOntario, Canada; Scanhead: RMV 704, 40 MHz). The volume of the entire tube-set was 7.5 or 15 mL.
For each experiment fresh blood was taken from a volunteer using 10 mL citrate-tubes (Sarstedt S-Monovette 02.1067.001, 10 mL, Citrate 3.13%) and immediately laid into the turning-device of an incubator at a temperature of 37° C. (Heraeus miniTherm CTT with integrated rotation- and turning device, turning speed: 19 rotations per minute, Heraeus Instruments GmbH, Hanau/Germany). As needed, two tubes were taken out of the turning-device and 15 mL were transferred to a 20 mL Syringe (Omnifix®, B. Braun, Melsungen/Germany) and gently mixed with 0.75 mL CaCl2-Solution before the peristaltic pump was started and the whole content of the syringe was transferred into the reservoir of the tube-set via a cell strainer (BD Falcon™ cell strain, 40 μm, BD, Franklin Lakes, N.J. USA). After 7 minutes 1 MBq or 0.5 MBq (15 mL or 7.5 mL) of the compound was added to the reservoir by means of a pipette, thereby mixing the content gently with the tip of the pipette. The blood was left circulating for another 3 minutes. Then, the pump was stopped, aliquots were taken from the blood and the thrombus together with the roughened thread was removed from the thrombus-chamber before both was weighted and measured in a gamma counter (Automatic Gamma Counter Wizard^2 3, Perkin Elmer). Then the thrombus together with the thread was incubated in Plasmin-solution (Plasmin from Human Plasma, Sigma Aldrich, stock-solution: 500 μg in 500 μL 150 μM Tris-buffer (pH 7.8), 20 μL stock-solution to 230 μL saline solution 0.9%) for 48 hours to separate the platelets from the thread and to determine the netto weight of the thrombus. Finally the activity of the compound in blood and thrombus as well as the ratio between both was determined (cpm/weight [mg]).
To verify the specificity of the compound, a competition experiment was conducted in which the cold compound was added to the reservoir together with the hot compound. The final plasma concentration of the cold compound was 2.8 μM.

[4] = Pharmacokinetics / biodistribution in mice; type: in vivo; conditions: nude mice
Description: The biodistribution of the compound described in example 41 was determined in nude mice. Briefly, the mice received 185 KBq of the compound each. At different time points ([…], 3 mice per group) the animals were sacrificed and the organs of interest or aliquots thereof were removed, weighted and finally measured in a gamma counter (Automatic Gamma Counter Wizard^2 3, Perkin Elmer).

Chain of human GPIIb/IIIa receptor (P08514 32-887): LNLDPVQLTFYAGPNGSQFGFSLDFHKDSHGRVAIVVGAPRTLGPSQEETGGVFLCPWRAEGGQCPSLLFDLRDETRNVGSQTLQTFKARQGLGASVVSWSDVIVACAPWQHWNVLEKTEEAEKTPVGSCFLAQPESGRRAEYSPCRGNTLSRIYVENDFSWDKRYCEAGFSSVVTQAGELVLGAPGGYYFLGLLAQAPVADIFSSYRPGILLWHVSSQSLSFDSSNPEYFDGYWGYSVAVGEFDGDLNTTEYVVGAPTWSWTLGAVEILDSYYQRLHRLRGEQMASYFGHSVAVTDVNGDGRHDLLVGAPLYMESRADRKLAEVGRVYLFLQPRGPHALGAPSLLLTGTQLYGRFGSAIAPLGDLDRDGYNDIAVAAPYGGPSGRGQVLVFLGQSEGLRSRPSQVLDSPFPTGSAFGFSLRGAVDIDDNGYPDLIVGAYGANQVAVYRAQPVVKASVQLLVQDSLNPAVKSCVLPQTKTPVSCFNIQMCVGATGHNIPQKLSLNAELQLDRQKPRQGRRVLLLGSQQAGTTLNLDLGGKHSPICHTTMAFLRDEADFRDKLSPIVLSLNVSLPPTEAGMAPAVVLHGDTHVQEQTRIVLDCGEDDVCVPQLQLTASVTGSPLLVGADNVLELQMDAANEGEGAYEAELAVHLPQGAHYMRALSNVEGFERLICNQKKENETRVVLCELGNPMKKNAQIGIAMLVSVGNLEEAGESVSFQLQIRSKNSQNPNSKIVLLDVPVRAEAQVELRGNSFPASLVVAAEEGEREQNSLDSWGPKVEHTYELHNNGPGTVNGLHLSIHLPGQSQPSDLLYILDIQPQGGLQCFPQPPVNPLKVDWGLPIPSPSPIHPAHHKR
Chain of human GPIIb/IIIa receptor (P08514 891-1039 partner): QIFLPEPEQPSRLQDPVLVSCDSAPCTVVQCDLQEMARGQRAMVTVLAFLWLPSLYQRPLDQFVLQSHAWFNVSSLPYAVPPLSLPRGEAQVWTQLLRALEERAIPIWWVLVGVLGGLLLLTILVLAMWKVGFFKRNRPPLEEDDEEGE
Chain of human GPIIb/IIIa receptor (P05106 27-788): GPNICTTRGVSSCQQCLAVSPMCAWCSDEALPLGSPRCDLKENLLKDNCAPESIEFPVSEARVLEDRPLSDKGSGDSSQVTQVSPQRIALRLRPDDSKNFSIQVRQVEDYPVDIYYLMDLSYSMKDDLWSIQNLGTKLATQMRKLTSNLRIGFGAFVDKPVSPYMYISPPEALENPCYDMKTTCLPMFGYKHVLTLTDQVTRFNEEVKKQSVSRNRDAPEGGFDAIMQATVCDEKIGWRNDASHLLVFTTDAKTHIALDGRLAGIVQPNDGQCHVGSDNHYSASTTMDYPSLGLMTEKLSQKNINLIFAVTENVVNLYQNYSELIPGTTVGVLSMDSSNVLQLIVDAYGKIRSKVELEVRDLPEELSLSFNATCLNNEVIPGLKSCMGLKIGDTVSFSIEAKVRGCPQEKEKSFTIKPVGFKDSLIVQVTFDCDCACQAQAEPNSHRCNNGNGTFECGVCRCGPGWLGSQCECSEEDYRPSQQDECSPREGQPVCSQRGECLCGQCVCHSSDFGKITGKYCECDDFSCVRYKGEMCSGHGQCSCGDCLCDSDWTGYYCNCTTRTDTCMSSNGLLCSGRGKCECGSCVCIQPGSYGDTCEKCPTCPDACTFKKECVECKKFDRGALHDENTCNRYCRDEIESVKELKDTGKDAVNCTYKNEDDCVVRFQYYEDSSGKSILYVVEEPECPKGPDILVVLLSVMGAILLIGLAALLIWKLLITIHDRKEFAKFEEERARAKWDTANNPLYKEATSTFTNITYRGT

Row | IC50 ([1]; 19F compounds vs 60 nM 3H-labeled reference compound, 1 hour at room temperature, read-out: IC50 human) | IC50 ([1]; values repeated beside the 18F-compound, read-out: IC50 human (corresponding 19F-compound, Table 2)) | fraction unbound at 0.3 μM ([2]; 0.3 μM) | fraction unbound at 3 μM ([2]; 3 μM) | fraction unbound at 0.3 μM ([3]; 0.3 μM) | fraction unbound at 3 μM ([3]; 3 μM) | enhancement in the vessel-wall [4] | elimination from the blood ([4]; 185 KBq, 1-120 minutes p.i.) | SMILES | in vitro clot-to-blood ratio (human thrombi; 3 minutes post-injection of 18F-labeled compound) | Accumulation Thrombus (human thrombi; 3 minutes post-injection of 18F-labeled compound, without cold compound) | Thrombus competition (human thrombi; cold compound added with hot compound, final plasma concentration 2.8 μM, 3 minutes) | excretion [4] | background in the rest of the body ([4]; after 15 minutes p.i.)
1 | 11 nM | 11 nM | 0.5 | 0.54 | 0.54 | 0.58 | – | – | O=C(O)C[C@H](NC(=O)[C@@H]1CCCN(C(=O)CCC2CCNCC2)C1)c1cncc(-c2ccc(OCCF)cc2)c1 [Example 7, (3S)-3-{5-[4-(2-Fluoroethoxy)phenyl]pyridin-3-yl}-3-[({(3R)-1-[3-(piperidin-4-yl)propanoyl]piperidin-3-yl}carbonyl)amino]propanoic acid] | – | – | – | – | –
2 | – | – | – | – | – | – | no enhancement in the vessel-wall | rapidly eliminated from the blood | O=C(O)C[C@H](NC(=O)[C@@H]1CCCN(C(=O)CCC2CCNCC2)C1)c1cncc(-c2ccc(OCC[18F])cc2)c1 [Example 41, (3S)-3-{5-[4-(2-[^18F]Fluoroethoxy)phenyl]pyridin-3-yl}-3-[({(3R)-1-[3-(piperidin-4-yl)propanoyl]piperidin-3-yl}carbonyl)amino]propanoic acid] | 83 ± 14 (n = 6) | 44 ± 7 (n = 6) 10^3 cpm/mg | 5 ± 1 (n = 5) 10^3 cpm/mg | quickly excreted over the kidney and liver | almost no background in the whole rest of the body

— patent US9345793B2, “Compounds for binding to the platelet specific glycoprotein IIB/IIIA and their use for imaging of thrombi” (PIRAMAL IMAGING SA, priority 2011, dated 2016)
